One series relates to S. marcescens. The series is described as follows: Photosensitizer with or without H2O2 or PHMB, rate of kill, S. marcescens. Format: cell-based. How it is done: All solutions (testing and control) are then incubated for about 5 minutes at 37° C. in the dark in an orbital incubator prior to exposure to the relevant light conditions. […]
(§1) After incubation overnight, the colony forming units at the dilution where they can best be counted are quantified and number of colony forming units per mL calculated.
In all instances the bacterial challenge is at least 5×10^5 cfu/mL. SoftWear Saline (providing 0.003% H2O2), photosensitizer solutions are made up at double the concentration to be tested using the SoftWear Saline as the diluent. 2.5 mLs of this solution is then mixed with 2.5 mLs of bacteria to form the test solutions.
In all instances the bacterial challenge is at least 5×10^5 cfu/mL. Solutions containing the photosensitizers and PHMB are made up separately at quadruple the concentration to be tested.

A further series deals with P. aeruginosa. In words: Photosensitizer rate of kill under light exposure, P. aeruginosa. The series is classed as cell-based. How it is done:
P. aeruginosa is grown in nutrient broth for about 18 hours to bring the bacteria into the logarithmic growth phase prior to being spun down via centrifugation and the pellet resuspended in sterile phosphate buffered saline (PBS). The bacterial suspension is then diluted to obtain an OD of 0.9 at 540 nm. This stock bacterial solution is subsequently diluted 1 in 500 to obtain a test solution containing about 10^5-10^6 cfu/ml.
A solution of one of the five photosensitizers is made at double the concentration to be tested.
A testing solution (lens care solution) is prepared by adding 5 mL of a photosensitizer solution to 5 mL of the bacterial solution.
Two control solutions are prepared by adding 5 mL of sterile PBS to 5 mL of the bacterial solution. One of the two control solutions is kept in the dark (i.e., Control Dark) and the other one is exposed to the same light conditions as the photosensitizer test solutions (i.e., Control Light).
All solutions (testing and control) are then incubated for about 5 minutes at 37° C. in the dark in an orbital incubator prior to exposure to the relevant light conditions. The light source used provides broad spectrum visible light and the temperature is controlled using a fan.
as §1
All solutions are then incubated for about 5 minutes at 37° C. in the dark in an orbital incubator prior to exposure to the relevant light conditions.
Two light sources are used to assess antibacterial activity of the range of photosensitizers. One is a broad spectrum light source which emits light across visible spectrum. […] The other light source used is a red LED, which emits light of a single wavelength at 630 nm.
The red LED light source emits with a power of 27 mW/cm2. In both instances, the power is measured using an ILT-1400 A Radiometer/Photometer.
as §1

Another series concerns C. albicans. In words: Photosensitizer with PHMB, rate of kill, C. albicans. Conditions: 10 μg/mL with 0.00005% PHMB; LED 630 nm; one hour; about 10^7 cfu/ml. Format: cell-based. As for the experimental part: All materials used and the method used to determine the rate of bacterial kill are described in Example 1 as was the method. In all instances the bacterial challenge is at least 5×10^5 cfu/mL. Solutions containing the photosensitizers and PHMB are made up separately at quadruple the concentration to be tested. 1.25 mLs of each solution is then added to 2.5 mLs of bacteria suspension to render the correct concentration to be tested.
Where a testing solution contains 10 μg/mL TMPyP and 0.00005% PHMB, a 5 Log reduction in bacterial viability against about 10^7 cfu/ml C. albicans is observed after one hour of light exposure to a LED (630 nm).

The conditions of series [1]: dissociation constant of the dibasic compound; cited from earlier work.
Where [2] appears, read: 5 μg/mL, red light/LED 630 nm, one hour, about 10^5 cfu/ml.
Where [3] appears, read: 10 μg/mL, broad spectrum light source, about 45 minutes, about 10^5 cfu/ml.

In the case of `CN(C)c1ccc2nc3ccc(=[N+](C)C)cc-3sc2c1` [MB, Methylene Blue], the “Log reduction in bacterial viability” value in the series on S. marcescens (20 μg/mL, free of H2O2, red LED 630 nm, one hour, about 10^5 cfu/ml) is “no reduction in bacterial viability”.
Consider `O=C1OC2(c3cc(I)c(O)c(I)c3Oc3c2cc(I)c(O)c3I)c2c(Cl)c(Cl)c(Cl)c(Cl)c21` [RB, Rose Bengal], for which the “Log reduction in bacterial viability” value with S. marcescens (10 μg/mL with 0.00005% PHMB, LED 630 nm, 15 minutes, about 10^5 cfu/ml) was 2 Log; with S. marcescens (10 μg/mL with 0.003% H2O2, LED 630 nm, about 10^5 cfu/ml), “no reduction in bacterial viability”; with S. marcescens (10 μg/mL, free of H2O2 or PHMB, LED 630 nm, about 10^5 cfu/ml), “no reduction in bacterial viability”; with P. aeruginosa (about 250 μg/mL, broad spectrum visible light, 30 minutes, about 10^5 cfu/ml), 5-6 Log. Moreover, the “further reduction in bacterial viability on additional light exposure” value in the series with S. marcescens (10 μg/mL with 0.00005% PHMB, LED 630 nm, additional light exposure up to one hour) is listed as “does not reduce bacterial viability”.
Turning to `Cc1cc2nc3ccc(N(C)C)cc3[s+]c2cc1N.[Cl-]` [TBO, Toluidine Blue O], the “Log reduction in bacterial viability” value in the series on S. marcescens (0.625 μg/mL with 0.00005% PHMB, LED 630 nm, about 15 minutes, about 10^5 cfu/ml) is 3 Log; in the series on S. marcescens (0.625 μg/mL with 0.00005% PHMB, LED 630 nm, about 30 minutes, about 10^5 cfu/ml), 5-6 Log; in the series with S. marcescens (1.25 μg/mL with 0.00005% PHMB, red LED 630 nm, about 15 minutes, about 10^5 cfu/ml) it was 3 Log; with S. marcescens (1.25 μg/mL with 0.00005% PHMB, red LED 630 nm, about 45 minutes, about 10^5 cfu/ml), 5-6 Log; in the series on S. marcescens (2.5 μg/mL with 0.00005% PHMB, red LED 630 nm, about 30 minutes, about 10^5 cfu/ml), 5-6 Log; with S. marcescens (2.5 μg/mL with 0.0005% PHMB, red LED 630 nm, about 15 minutes, about 10^5 cfu/ml) it was 5-6 Log. In addition, the “Log reduction in bacterial viability” value is on record as 5-6 Log with S. marcescens (2.5 μg/mL with 0.003% H2O2, red LED 630 nm, 30 minutes, about 10^5 cfu/ml); 5-6 Log in the series on S. marcescens (5 μg/mL only, free of H2O2, red LED 630 nm, 45 minutes); 5-6 Log with P. aeruginosa (5 μg/mL, broad spectrum light source, about 30 minutes, about 10^5 cfu/ml); 5-6 Log in the series on P. aeruginosa (setting [2]); 5-6 Log in the series with P. aeruginosa (setting [3]); 3 Log with P. aeruginosa (50 μg/mL, broad spectrum light source, between 30 to 45 minutes, about 10^5 cfu/ml). In addition, in the series with P. aeruginosa (250 μg/mL, broad spectrum visible light, time not stated, about 10^5 cfu/ml), the “reduction in bacterial viability” value is given as “no reduction in bacterial viability”. Further, the “Rate of kill (Log reduction in bacterial viability)” value with P. aeruginosa (375 μg/mL, broad spectrum visible light, 30 minutes light exposure, about 10^5 cfu/ml) is given as 5-6 Log; in the series on P. aeruginosa (500 μg/mL, broad spectrum visible light, 15 minutes light exposure, about 10^5 cfu/ml), 5-6 Log. Also, the “Time of Light Exposure” value with P. aeruginosa (375 μg/mL, broad spectrum visible light, time for the stated rate of kill) amounted to 30 min; with P. aeruginosa (500 μg/mL, broad spectrum visible light, time for the stated rate of kill (Table 2)), 15 min.
Turning to `C[n+]1ccc(-c2c3nc(c(-c4cc[n+](C)cc4)c4ccc([nH]4)c(-c4cc[n+](C)cc4)c4nc(c(-c5cc[n+](C)cc5)c5ccc2[nH]5)C=C4)C=C3)cc1.Cc1ccc(S(=O)(=O)[O-])cc1.Cc1ccc(S(=O)(=O)[O-])cc1.Cc1ccc(S(=O)(=O)[O-])cc1.Cc1ccc(S(=O)(=O)[O-])cc1` [TMPyP, tetra(N-methyl-4-pyridyl)porphine tetratosylate], the “Log reduction in bacterial viability” value in the series with C. albicans is 5 Log; with S. marcescens (10 μg/mL with 0.00005% PHMB, red LED 630 nm, about 45 minutes, about 10^5 cfu/ml) it was 3 Log; with S. marcescens (10 μg/mL with 0.0005% PHMB, red LED 630 nm, about 15 minutes, about 10^5 cfu/ml), 5-6 Log; with S. marcescens (10 μg/mL with 0.003% H2O2, red LED 630 nm, one hour, about 10^5 cfu/ml) it was “about 3 Log”; in the series on P. aeruginosa (5 μg/mL, broad spectrum light source, one hour, about 10^5 cfu/ml) it was 2 Log; in the series on P. aeruginosa (5 μg/mL, broad spectrum light source, two hours, about 10^5 cfu/ml), 5-6 Log. Moreover, the “Log reduction in bacterial viability” value with P. aeruginosa (setting [2]) is on record as 2 Log; with P. aeruginosa (setting [3]), 5-6 Log; in the series with P. aeruginosa (10 μg/mL, red LED 630 nm, about 45 minutes, about 10^5 cfu/ml) it was 5-6 Log. Further, the “Rate of kill (Log reduction in bacterial viability)” value with P. aeruginosa (50 μg/mL, broad spectrum visible light, 45 minutes light exposure, about 10^5 cfu/ml) was 5-6 Log; in the series on P. aeruginosa (250 μg/mL, broad spectrum visible light, 45 minutes light exposure, about 10^5 cfu/ml), 5-6 Log; in the series with P. aeruginosa (500 μg/mL, broad spectrum visible light, 30 minutes light exposure, about 10^5 cfu/ml), 5-6 Log. Moreover, the “Time of Light Exposure” value came out at 45 min with P. aeruginosa (50 μg/mL, broad spectrum visible light, time for the stated rate of kill); 45 min in the series on P. aeruginosa (250 μg/mL, broad spectrum visible light, time for the stated rate of kill); 30 min in the series with P. aeruginosa (500 μg/mL, broad spectrum visible light, time for the stated rate of kill (Table 1)).
For `Cl.Cl.O=S(=O)(O)c1ccc(-c2c3nc(c(-c4ccc(S(=O)(=O)O)cc4)c4ccc([nH]4)c(-c4ccc(S(=O)(=O)O)cc4)c4nc(c(-c5ccc(S(=O)(=O)O)cc5)c5ccc2[nH]5)C=C4)C=C3)cc1` [TSPP, meso-tetra(4-sulfonatophenyl)porphine dihydrochloride], the biocidal activity result in the series on P. aeruginosa (about 1 mg/mL, broad spectrum visible light, about 10^5 cfu/ml) was “no significant biocidal activity”.
Consider `OCC(CO)(CO)NCCCNC(CO)(CO)CO` [bis-TRIS-propane, 1,3-bis(tris[hydroxymethyl]methylamino)propane], for which, in series [1], the pKa1 is 6.8 and the pKa2 is 9.5.
On to polyhexamethylene biguanide [PHMB], for which the “Log reduction in bacterial viability” value with S. marcescens (0.00005% PHMB without any sensitizer, one hour, about 10^5 cfu/ml) came to 1 Log.

Source of the values: patent US20110217202A1, “ACTIVE OXYGEN DISINFECTION SYSTEM AND USE THEREOF” (priority 2010, published 2011).
